The values below come from PMC3138873 (Biochemical pharmacology, 2011).

Usually Ki stands for the dissociation constant of the complex between target and ligand, obtained from inhibition or displacement.

Assay [1] deals with T1, AC1 (Bos taurus, UniProt P19754). The assay can be described thus: AC activity assay in Sf9 membranes expressing recombinant AC1. It is filed as biochemical, mammalian.
The target of assay [2] is T2, AC2 (Rattus norvegicus, UniProt P26769). Nature of the assay: AC activity assay in Sf9 membranes expressing recombinant AC2. Format: biochemical, mammalian.
In assay [3] the target is T3, AC5 (Canis lupus familiaris, UniProt P30803). Nature of the assay: AC activity assay in Sf9 membranes expressing recombinant AC5. Conditions: for Potency difference AC5 versus AC2: comparison of Ki at AC5 versus AC2. Format: biochemical, mammalian.
Assay [4] has as its target T4, VC1:IIC2 (UniProt P26769+P30803). Nature of the assay: Inhibition of the catalytic activity of purified VC1:IIC2. Format: biochemical, mammalian.
Assay [5] has as its target T1, AC1. Particulars: read-out: AC1 Ki; Sf9 membranes, 5 mM MnCl2, 100 μM FS; mean ± SD; cited from earlier work.
Assay [6] concerns the target T2, AC2. Particulars: read-out: AC2 Ki; Sf9 membranes, 5 mM MnCl2, 100 μM FS; mean ± SD; cited from earlier work.
Assay [7] addresses T3, AC5. Conditions: read-out: AC5 Ki; Sf9 membranes, 5 mM MnCl2, 100 μM FS; mean ± SD; cited from earlier work.
Assay [8] concerns the target T4, VC1:IIC2. Particulars: cited from earlier work.
For assay [9], the target named is ACs 1, 2 and 5. Particulars: read-out: Ki for ACs 1, 2 and 5; TNP-nucleotides; cited from earlier work.
Setting [10] is: read-out: VC1:IIC2 Mn2+ + FS + Gsα-GTPγS Ki, maximally stimulated: 10 mM MnCl2, 100 μM FS, 100 μM ATP, mean ± SD.
[11] abbreviates: read-out: Ki for VC1:IIC2, TNP-nucleotides.
The mark [12] stands for this setting: VC1:IIC2 Mn2+ + FS + Gsα-GTPγS Ki, maximally stimulated: 10 mM MnCl2, 100 μM FS, 100 μM ATP, mean ± SD.
[13] abbreviates: read-out: AC1 Ki, Sf9 membranes, 5 mM MnCl2, 100 μM FS, mean ± SD.
Where [14] appears, read: read-out: AC2 Ki, Sf9 membranes, 5 mM MnCl2, 100 μM FS, mean ± SD.
Setting [15] is: read-out: AC5 Ki, Sf9 membranes, 5 mM MnCl2, 100 μM FS, mean ± SD.
Setting [16] is: read-out: VC1:IIC2 Mn2+ + FS + Gsα-GTPγS Ki, maximally stimulated: 10 mM MnCl2, 100 μM FS, Gsα-GTPγS, mean ± SD.

Where two headings read alike, the source gives them in different places. Some results are limits rather than exact numbers.

T4 sequence (P30803 398-765 limits assumed): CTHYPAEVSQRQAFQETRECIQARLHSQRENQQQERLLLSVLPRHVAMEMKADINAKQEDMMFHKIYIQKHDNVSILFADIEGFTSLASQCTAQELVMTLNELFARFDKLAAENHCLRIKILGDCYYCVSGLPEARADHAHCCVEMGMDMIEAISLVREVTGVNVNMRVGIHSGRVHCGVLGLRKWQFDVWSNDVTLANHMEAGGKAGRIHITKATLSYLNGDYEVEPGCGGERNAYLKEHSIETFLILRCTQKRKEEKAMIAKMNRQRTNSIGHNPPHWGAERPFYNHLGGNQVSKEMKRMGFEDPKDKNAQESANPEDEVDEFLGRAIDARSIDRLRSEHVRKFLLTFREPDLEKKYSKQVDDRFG
T4 sequence (P26769 821-1090 limits assumed): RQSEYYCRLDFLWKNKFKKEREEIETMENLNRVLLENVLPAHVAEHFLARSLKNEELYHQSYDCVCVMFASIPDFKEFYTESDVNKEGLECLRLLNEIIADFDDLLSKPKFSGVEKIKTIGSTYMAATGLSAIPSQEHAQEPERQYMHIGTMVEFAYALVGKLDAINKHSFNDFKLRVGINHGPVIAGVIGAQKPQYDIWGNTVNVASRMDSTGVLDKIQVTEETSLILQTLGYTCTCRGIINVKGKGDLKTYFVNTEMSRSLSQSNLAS
T4 sequence (P04896 whole entry partner): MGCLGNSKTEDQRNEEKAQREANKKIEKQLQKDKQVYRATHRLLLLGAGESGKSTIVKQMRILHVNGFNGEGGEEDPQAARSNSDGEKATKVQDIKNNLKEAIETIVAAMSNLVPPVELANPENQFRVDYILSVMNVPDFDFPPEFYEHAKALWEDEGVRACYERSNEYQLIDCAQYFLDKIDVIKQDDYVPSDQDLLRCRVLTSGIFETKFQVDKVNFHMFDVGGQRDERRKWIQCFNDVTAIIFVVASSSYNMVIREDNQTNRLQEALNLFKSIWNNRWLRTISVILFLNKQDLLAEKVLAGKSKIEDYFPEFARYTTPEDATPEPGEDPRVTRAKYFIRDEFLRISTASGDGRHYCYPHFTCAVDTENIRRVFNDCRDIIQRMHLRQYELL
T1 sequence (P19754 whole entry): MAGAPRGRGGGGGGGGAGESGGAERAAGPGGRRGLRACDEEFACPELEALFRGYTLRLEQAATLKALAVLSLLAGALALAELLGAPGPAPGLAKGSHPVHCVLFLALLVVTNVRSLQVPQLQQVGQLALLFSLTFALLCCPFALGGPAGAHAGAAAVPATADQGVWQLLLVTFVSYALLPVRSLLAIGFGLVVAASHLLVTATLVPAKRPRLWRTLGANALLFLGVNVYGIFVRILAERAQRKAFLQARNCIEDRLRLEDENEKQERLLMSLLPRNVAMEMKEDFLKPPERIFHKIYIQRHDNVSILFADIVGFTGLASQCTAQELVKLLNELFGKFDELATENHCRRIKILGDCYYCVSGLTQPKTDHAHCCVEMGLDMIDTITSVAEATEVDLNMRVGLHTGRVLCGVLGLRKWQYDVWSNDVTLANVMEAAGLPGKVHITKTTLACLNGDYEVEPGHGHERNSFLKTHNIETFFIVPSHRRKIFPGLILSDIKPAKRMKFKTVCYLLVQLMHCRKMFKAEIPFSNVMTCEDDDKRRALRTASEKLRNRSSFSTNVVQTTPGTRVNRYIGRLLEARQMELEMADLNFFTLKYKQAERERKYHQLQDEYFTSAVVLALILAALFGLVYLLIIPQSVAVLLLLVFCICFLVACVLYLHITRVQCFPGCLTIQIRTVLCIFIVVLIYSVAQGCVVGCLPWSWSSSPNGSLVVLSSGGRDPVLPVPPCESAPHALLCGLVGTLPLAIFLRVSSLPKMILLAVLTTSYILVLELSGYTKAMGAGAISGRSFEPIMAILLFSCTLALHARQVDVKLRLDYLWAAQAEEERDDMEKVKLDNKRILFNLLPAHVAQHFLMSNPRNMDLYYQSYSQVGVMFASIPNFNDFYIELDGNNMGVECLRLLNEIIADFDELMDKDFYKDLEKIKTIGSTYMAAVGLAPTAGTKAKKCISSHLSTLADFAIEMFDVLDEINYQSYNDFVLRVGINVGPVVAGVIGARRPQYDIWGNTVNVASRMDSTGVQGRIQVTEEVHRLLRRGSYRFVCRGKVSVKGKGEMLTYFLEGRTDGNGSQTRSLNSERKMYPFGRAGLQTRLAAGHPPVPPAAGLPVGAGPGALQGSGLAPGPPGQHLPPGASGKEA
T2 sequence (P26769 whole entry): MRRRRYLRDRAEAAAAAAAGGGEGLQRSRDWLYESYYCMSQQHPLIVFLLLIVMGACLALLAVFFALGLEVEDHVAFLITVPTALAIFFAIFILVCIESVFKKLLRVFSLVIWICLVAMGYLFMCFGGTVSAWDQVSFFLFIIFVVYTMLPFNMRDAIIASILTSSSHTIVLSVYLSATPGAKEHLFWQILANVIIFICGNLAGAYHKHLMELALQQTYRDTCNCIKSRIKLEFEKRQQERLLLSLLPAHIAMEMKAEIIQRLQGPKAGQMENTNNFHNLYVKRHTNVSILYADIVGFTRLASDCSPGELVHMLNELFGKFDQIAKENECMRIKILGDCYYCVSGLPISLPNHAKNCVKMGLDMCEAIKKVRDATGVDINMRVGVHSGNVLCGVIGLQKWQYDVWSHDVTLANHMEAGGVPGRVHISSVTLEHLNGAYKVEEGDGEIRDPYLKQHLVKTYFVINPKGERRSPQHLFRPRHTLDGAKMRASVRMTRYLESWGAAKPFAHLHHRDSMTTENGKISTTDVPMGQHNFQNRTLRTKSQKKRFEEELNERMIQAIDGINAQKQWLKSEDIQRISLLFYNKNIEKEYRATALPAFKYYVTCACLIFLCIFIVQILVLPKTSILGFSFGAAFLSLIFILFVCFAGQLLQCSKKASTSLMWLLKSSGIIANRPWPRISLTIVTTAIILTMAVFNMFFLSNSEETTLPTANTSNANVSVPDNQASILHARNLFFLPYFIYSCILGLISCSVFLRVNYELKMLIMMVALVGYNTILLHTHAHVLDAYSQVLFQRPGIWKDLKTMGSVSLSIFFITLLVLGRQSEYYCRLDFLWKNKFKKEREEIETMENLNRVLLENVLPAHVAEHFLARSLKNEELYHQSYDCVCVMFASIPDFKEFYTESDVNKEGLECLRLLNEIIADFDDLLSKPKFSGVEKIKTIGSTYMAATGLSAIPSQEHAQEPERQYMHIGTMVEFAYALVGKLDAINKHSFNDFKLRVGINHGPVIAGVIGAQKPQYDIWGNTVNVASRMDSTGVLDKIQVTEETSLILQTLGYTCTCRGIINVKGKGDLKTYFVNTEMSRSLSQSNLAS
T3 sequence (P30803 whole entry): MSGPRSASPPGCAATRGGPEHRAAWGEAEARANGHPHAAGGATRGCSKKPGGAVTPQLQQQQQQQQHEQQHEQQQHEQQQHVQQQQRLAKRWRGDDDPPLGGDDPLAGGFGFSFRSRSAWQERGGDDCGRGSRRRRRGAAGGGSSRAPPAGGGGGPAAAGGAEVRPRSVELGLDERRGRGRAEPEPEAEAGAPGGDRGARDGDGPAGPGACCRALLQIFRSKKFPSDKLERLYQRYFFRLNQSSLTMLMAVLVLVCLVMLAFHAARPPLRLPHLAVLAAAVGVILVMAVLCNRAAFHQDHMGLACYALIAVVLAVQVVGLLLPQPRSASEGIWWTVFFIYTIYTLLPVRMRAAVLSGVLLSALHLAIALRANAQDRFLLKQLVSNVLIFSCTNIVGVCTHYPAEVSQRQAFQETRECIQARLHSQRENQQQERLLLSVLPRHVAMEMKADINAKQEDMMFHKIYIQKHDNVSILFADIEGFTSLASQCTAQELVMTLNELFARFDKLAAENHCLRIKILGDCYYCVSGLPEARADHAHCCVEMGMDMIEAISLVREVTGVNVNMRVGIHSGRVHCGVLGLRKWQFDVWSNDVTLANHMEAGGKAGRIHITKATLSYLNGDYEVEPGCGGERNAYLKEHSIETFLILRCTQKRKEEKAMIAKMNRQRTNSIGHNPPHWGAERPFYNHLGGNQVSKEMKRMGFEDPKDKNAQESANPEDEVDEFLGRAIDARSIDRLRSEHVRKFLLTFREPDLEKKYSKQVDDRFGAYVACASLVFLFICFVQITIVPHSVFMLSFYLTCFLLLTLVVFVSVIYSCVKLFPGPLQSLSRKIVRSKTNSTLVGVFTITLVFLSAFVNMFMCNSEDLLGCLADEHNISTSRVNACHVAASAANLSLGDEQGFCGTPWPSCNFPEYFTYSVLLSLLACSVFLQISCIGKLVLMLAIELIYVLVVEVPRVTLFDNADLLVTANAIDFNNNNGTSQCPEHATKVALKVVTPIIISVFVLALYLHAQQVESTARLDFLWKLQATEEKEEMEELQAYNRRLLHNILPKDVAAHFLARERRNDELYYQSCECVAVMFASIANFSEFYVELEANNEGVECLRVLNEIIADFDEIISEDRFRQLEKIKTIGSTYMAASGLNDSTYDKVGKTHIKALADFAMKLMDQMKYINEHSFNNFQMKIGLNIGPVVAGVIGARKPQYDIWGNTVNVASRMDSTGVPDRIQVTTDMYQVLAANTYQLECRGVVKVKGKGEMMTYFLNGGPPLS

On to `CNc1ccccc1C(=O)O[C@H]1C[C@H](n2cnc3c(=O)[nH]c(N)nc32)O[C@@H]1COP(=O)(O)OP(=O)(O)OP(=O)(O)O` [compound 2, 2’-deoxy-3’-O-(N-methylanthraniloyl)-guanosine 5’-triphosphate], for which the Ki in [1] was 0.27 ± 0.03 µM; in [2], 1.3 ± 0.21 µM; in assay [3], 0.41 ± 0.035 µM.
“2’(3’)-O-(N-methylanthraniloyl)-cytidine 5’-triphosphate [compound 12]”: the Ki in assay [4] (setting [10]) is 0.0092 ± 0.0015 µM; in assay [5], 0.15 ± 0.03 µM; in assay [6], 0.69 ± 0.02 µM; in [7], 0.15 ± 0.03 µM.
Take “2’,3’-O-(2,4,6-trinitrophenyl)-UTP [reference compound]”: the Ki was 0.1 to 0.3 µM in assay [8] (setting [11]) and 0.01 to 0.1 µM in assay [9].
As to `CNc1ccccc1C(=O)O[C@@H]1C[C@@H](COP(=O)(O)OP(=O)(O)OP(=O)(O)O)O[C@H]1n1cnc2c(=O)[nH]c(N)nc21` [compound 3, 3’-deoxy-2’-O-(N-methylanthraniloyl)-guanosine 5’-triphosphate], the Ki in assay [4] (setting [12]) was found to be 0.35 ± 0.043 µM; in assay [1] it was 1.8 µM; in assay [2], 8.7 µM; in assay [3], 1.8 µM.
`CNc1ccccc1C(=O)O[C@@H]1C[C@@H](COP(=O)(O)OP(=O)(O)OP(=O)(O)O)O[C@H]1n1cnc2c(N)ncnc21` [compound 7, 3’-deoxy-2’-O-(N-methylanthraniloyl)-adenosine 5’-triphosphate]: the Ki in [4] (setting [12]) came to 0.09 ± 0.0022 µM; in assay [1] it was 0.47 ± 0.02 µM; in [2], 0.54 ± 0.02 µM; in [3], 0.065 ± 0.005 µM.
In the case of “2’,3’-O-(N-methylanthraniloyl)-uridine 5’-triphosphate [compound 11]”, the Ki in assay [4] (setting [10]) stood at 0.0061 ± 0.0013 µM; in assay [1] (setting [13]) it was 0.046 ± 0.004 µM; in [2] (setting [14]), 0.46 ± 0.06 µM; in assay [3] (setting [15]), 0.032 ± 0.002 µM. Besides, the “Potency difference AC5 versus AC2” value in assay [3] is above 10 fold.
As to “2’,3’-O-(N-methylanthraniloyl)-xanthosine 5’-triphosphate [compound 10]”, the Ki in [1] (setting [13]) is 1.1 µM; in assay [2] (setting [14]), 3 µM; in assay [3] (setting [15]), 1.3 µM; in assay [8] (setting [16]), 1.2 µM.
Take “2’,3’-O-(N-methylanthraniloyl)-guanosine 5’-triphosphate [compound 1]”: the Ki in assay [1] (setting [13]) is 0.09 ± 0.018 µM; in [2] (setting [14]), 0.61 ± 0.07 µM; in assay [3] (setting [15]), 0.053 ± 0.012 µM; in [8] (setting [16]) it was 0.018 ± 0.006 µM. In assay [3], the “Potency difference AC5 versus AC2” value is recorded as above 10 fold.
Take “2’,3’-O-anthraniloyl-adenosine 5’-diphosphate [compound 15]”: the values for the Ki in [1] (setting [13]) and in assay [2] (setting [14]) were 0.86 ± 0.01 µM and 2.9 µM, respectively.
For `CNc1ccccc1C(=O)O[C@H]1C[C@H](n2cnc3c(N)ncnc32)O[C@@H]1COP(=O)(O)OP(=O)(O)OP(=O)(O)O` [compound 6, 2’-deoxy-3’-O-(N-methylanthraniloyl)-adenosine 5’-triphosphate], the Ki in [4] (setting [12]) is 0.19 ± 0.0034 µM; in [1], 0.32 ± 0.019 µM; in assay [2], 4.8 µM; in [3], 0.36 ± 0.054 µM. In assay [3], the “Potency difference AC5 versus AC2” value is above 10 fold.
For “2’,3’-O-anthraniloyl-guanosine 5’-triphosphate [compound 13]”, the Ki in assay [4] (setting [10]) was 0.01 ± 0.0017 µM.
Turning to “2’,3’-O-anthraniloyl-adenosine 5’-triphosphate [compound 14]”, the Ki in assay [1] (setting [13]) was 0.13 ± 0.02 µM; in assay [2] (setting [14]) it was 0.64 ± 0.07 µM.
Regarding “2’,3’-O-(N-methylanthraniloyl)-adenosine 5’-triphosphate [compound 5]”, the Ki in assay [5] was 0.15 ± 0.04 µM.
Consider “2’,3’-O-(2,4,6-trinitrophenyl)-CTP [reference compound]”, for which the figures for the Ki in assay [8] (setting [11]) and in assay [9] were 0.1 to 0.3 µM and 0.01 to 0.1 µM, respectively.
As for “2’,3’-O-(N-methylanthraniloyl)-guanosine 5’-[γ-thio]triphosphate [compound 4]”, the Ki in [4] (setting [10]) amounted to 0.024 ± 0.0041 µM; in [1] (setting [13]) it was 0.063 ± 0.017 µM; in [2] (setting [14]), 0.37 ± 0.081 µM; in assay [3] (setting [15]), 0.034 ± 0.008 µM.
